Legend:
[1] = tested on: healthy male Kunming mice; assay: Impact on liver damage in mice: serum AST and ALT activity after gavage; format: in vivo; details: gavage 0.5 g/kg, 4 d at intervals of 24 h, mean ± spread, 10 mice per group
Procedure: 1. Materials: healthy male Kunming mice (weight: 20-22 g)
Divide 50 mice into 5 Groups: Control Group, Model Group, Embodiment Group 1, Embodiment Group 2 and Embodiment Group 3; 10 mice for each group. The mice are fed freely two days and fasted 16 h before the experiment. Experimental Treatment: the mice respectively of Control Group, Model Group, Embodiment Group 1, Embodiment Group 2 and Embodiment Group 3 are separately given normal saline, acetaminophen solution (0.5 g/kg), tablets (0.5 g/kg) made in Embodiment 1, oral solution (0.5 g/kg) made in Embodiment 2, and granules made in Embodiment 3 by gavage. The mice are treated continuously 4 d at intervals of 24 h. The mice of control group are given 1% sodium carboxymethylcellulose (0.15 g/kg) by gavage 1 h after last treatment and sacrificed by cervical dislocation after 24 h.
Preparation of Blood Serum: take blood from mouse carotid artery, stand the blood, then make it centrifuged at 3,000 r/min for 15 min to separate out the serum, and put the serum in refrigerator (−20° C.) for storage.
Measuring Indicator and Method: take the prepared serum on Sigma95308 automatic biochemistry analyzer to determine the activity of aspartate transaminase (AST/GOT) and alanine aminotransferase (ALT/GPT).
Impact of Embodiments on Liver Damage

[2] = after taken, cited from earlier work

In the case of CC(=O)Nc1ccc(O)cc1 [Model Group, Acetaminophen], the “ALT (alanine aminotransferase, ALT/GPT) activity in serum” value [1] is given as 87.8 ± 9.5 IU · L^−1, the “AST (aspartate transaminase, AST/GOT) activity in serum” value [1] is given as 245.6 ± 18.3 IU · L^−1 and the “Share combined with glucuronide” value ([2]; liver metabolism) is given as 60%. For the same compound, the “Share combined with sulfuric acid” value ([2]; liver metabolism) was 30%, the “Share metabolized by liver cytochrome P450 oxidase system to NAPQI” value [2] was 4%-5 and the “Share of acetaminophen metabolized by the liver” value [2] was 90%.
